Measured values from patent US20250090441A1, “ANTI-CARIES PEPTIDES WITH ANTIMICROBIAL AND REMINERALIZING PROPERTIES AND METHODS THEREOF” (THE UNIVERSITY OF HONG KONG, priority 2023, published 2025).
Converted amounts (≈) assume the structure as drawn. Where a SMILES comes first, the peptide text is derived from it.

Columns and labels:
[1] = test system: Streptococcus mutans ATCC 35668; type: cell-based
Procedure: (§1) Common oral pathogenic bacterial strains were selected for this study. Streptococcus mutans ATCC 35668, Streptococcus sobrinus ATCC 33478, Lactobacillus acidophilus ATCC 9224, Lactobacillus rhamnosus ATCC10863, Actinomyces naeslundii ATCC 12104, Enterococcus faecalis ATCC 29212, Porphyromonas gingivalis ATCC 33277, and Actinobacillus actinomycetemcomitans ATCC 29523. All the strains were cultured anaerobically.
(§2) Brain heart infusion (BHI) medium was used for culture of S. mutans, S. sobrinus, L. acidophilus, L. rhamnosus, A. naeslundii, E. faecalis, and A. actinomycetemcomitans, whereas p.g. broth was used for culture of Porphyromonas gingivalis. The standard dilution method in a 96-well microplate was conducted in order to evaluate the antimicrobial efficacy of GAPI. Each well was filled with […] GAPI dilutions. In addition, serial twofold dilutions in concentrations ranging from 1280 μM to 1.25 μM were prepared. A 10 μL bacterial culture (10^6 CFU/mL) was added. Chlorhexidine was used as positive control, and medium was used as negative control. The plates were then anaerobically incubated at 37° C. for 24 h. The absorbance was measured at a wavelength of 660 nm in order to analyze the growth of microorganisms. […] The MBC endpoint was the lowest concentration at which 99.9% of the bacterial population was killed, which thus means the absence of bacteria. The morphology of the bacteria and fungi treated with synthesized peptides was analysed using transmission electron microscopy (TEM) (Philips CM100, Philips/FEI Corporation, Eindhoven, Holland). The sample was prepared following a previous study (Niu et al. 2021d). Copper grids were used to contain the semi-thin sections of bacteria/fungi for examination.

[2] = test system: Enterococcus faecalis ATCC 29212; type: cell-based
Procedure: as §1, §2

For `CC(C)[C@@H]1NC(=O)[C@H](CCCN=C(N)N)NC(=O)[C@H](Cc2ccccc2)NC(=O)[C@@H](NC(=O)[C@H](Cc2c[nH]c3ccccc23)NC(=O)[C@H](CCCN=C(N)N)NC(=O)[C@H](CCCN=C(N)N)NC(=O)c2cc(O)c(O)c(O)c2)CSSC[C@@H](C(=O)N[C@@H](CCCN=C(N)N)C(=O)O)NC(=O)[C@H](CCCCN)NC(=O)[C@H](CCCN=C(N)N)NC(=O)[C@H](Cc2ccc(O)cc2)NC(=O)[C@@H]2CSSC[C@H](NC1=O)C(=O)N[C@@H](Cc1ccc(O)cc1)C(=O)N[C@@H](CCCN=C(N)N)C(=O)NCC(=O)N[C@@H](Cc1ccccc1)C(=O)N2` [GAPI, Gallic-Acid-Polyphemusin-I] (HELM PEPTIDE1{[O=C(c1cc(O)c(O)c(O)c1)[*:2]].R.R.W.C.F.R.V.C.Y.R.G.F.C.Y.R.K.C.R}$PEPTIDE1,PEPTIDE1,5:R3-18:R3|PEPTIDE1,PEPTIDE1,9:R3-14:R3$$$V2.0), the MBC ([1]; ATCC 35668) was 160 µM (≈ 417 µg/mL), the MIC ([1]; ATCC 35668, anaerobic, 24 h) was 80 µM (≈ 209 µg/mL) and the MBC ([2]; ATCC 29212) was 640 µM (≈ 1670 µg/mL). The MIC ([2]; ATCC 29212, anaerobic, 24 h) was 160 µM (≈ 417 µg/mL).
